For data set [1], the system named is Human umbilical vein endothelial cells (HUVEC). Kind of data set: HUVEC cell tube formation. The settings on record: 0-1000 nM, 18 hours, absence of exogenous opioids. The format is cell-based. On the procedure: Two independent model systems were used to explore the role of MOR and endogenous opioids on angiogenesis. Human umbilical vein endothelial cells (HUVEC) in culture initiate angiogenesis through tube formation when cultured on an appropriate extracellular matrix. In a living system, the chicken egg chorioallantoic membrane assay (CAM) allows direct visualization of new blood vessel formation.
Specifically, the HUVEC cell tube formation was assessed in the presence of various doses (0-1000 nM) of three different Mu opioid receptor antagonists (axelopran, naloxegol, and methylnaltrexone (MNTX)). For this testing, the HUVEC cells were exposed to the various MOR antagonist concentrations and incubated under the following conditions: Briefly, 50 μL of Matrigel in 96 well plates was loaded to make one layer of extracellular matrix. The plate was kept for 1 hour at 37° C. HUVEC cells were seeded on top of Matrigel (0.02×10^6 cells/well) and waited for 4 h to form tube formation. […] Once tubes formed, cells were treated with increasing amounts of the test compounds (axelopran, naloxegol, and MNTX) and incubated for 18 hours. Cells were stained with Calcein AM and images were captured. The data analysis was performed using NIH imageJ software. Tube length was measure and data was plotted using prism software.

The test system of data set [2] is human microvascular endothelial cells. The settings on record: Feng et al. BMC Anesthesiol (2021); cited from earlier work.
The subject of data set [3] is MDA-MB-231 tumor cell line. Briefly: Breast cancer tumor progression in the CAM assay. The format is in vivo, chicken. To be noted: 5 days of growth in the upper CAM; axelopran 1.0 mg/kg, pembrolizumab 2.5 mg/kg, bevacizumab 4 mg/kg. On the procedure:
The chicken egg chorioallantoic membrane assay (FIG. 3B) allows for the study of tumor progression of injected tumor cells in the presence of active endogenous immune surveillance, but again in the absence of an active gut microbiome.
Breast cancer cell tumor progression was assessed in the chicken egg, chorioallantoic membrane assay. The experimental timing is shown below in FIG. 9. Fertilized chicken eggs were incubated for 9 days. The MDA-MB-231 tumor cell line was cultivated in D-MEM medium supplemented with 10% FBS and 1% penicillin/streptomycin. On day E9, cells were detached with trypsin, washed with complete medium and suspended in graft medium. An inoculum of 1×10^6 cells was added onto the CAM of each egg (E9) and then eggs were randomized into groups. Tumor cells (breast cancer MDA-MB231 cells (10^6)) were then seeded on the upper CAM and further incubated for 3 three days. Test agents were then added to the same site at selected concentrations. Following five days of further incubation the growing tumor was excised, freed of CAM tissue, and weighed.
For this testing, the chicken eggs were treated with: axelopran; pembrolizumab (Pembro); axelopran+pembrolizumab; bevacizumab (Beva); axelopran+bevacizumab; pembrolizumab+bevacizumab; and axelopran+pembrolizumab+bevacizumab. Axelopran was used at dose of 1.0 mg/kg; pembrolizumab was used at a dose of 2.5 mg/kg; and bevacizumab was used at a dose of 4 mg/kg. The results of this testing are shown in FIG. 10A, 10B, 11 and Table 2-2.

In another data set the test system is Zebra fish larvae. Kind of data set: Zebra fish larvae mortality in combination therapy study. In kind it is in vivo, zebrafish. To be noted: TILs plus pembrolizumab. How it is done:
(§1) The toxicity screening period covered the first 72 hours of development. The efficacy evaluation of Axelopran was made using M-001 melanoma cells and matching TILs. Two-day old zebrafish embryos were subcutaneously injected into the perivitelline space with approximately 700 M-001 cells labelled with Dil red fluorescent dye and intravenously injected with TILs with or without pembrolizumab antibody. At the same time, MOR-antagonist test doses were added to the water. Following an additional 72 hours of further development, the fish were assayed for tumor growth (size of original tumor implant) and metastasis disseminated to the distal caudal venous plexus (CVP) three days after implantation.
For study investigating combination therapy, the Zebra fish larvae mortality was also investigated.

The next data set relates to M-001 melanoma cells. Briefly: Melanoma tumor progression in Zebra fish larvae. In kind it is in vivo, zebrafish. The settings on record: Pembro +TILS, no axelopran, 72 hours of growth. How it is done:
Zebra fish larvae (FIG. 3A) allow direct visualization of injected tumor cell growth and metastasis (collectively tumor progression) using fluorescently label tumor cells. At this developmental stage both the zebra fish immune system and gut microbiome are immature or lacking. Co-injection of exogenous tumor infiltrating lymphocytes (ex-TILS) allows the separate study of immune surveillance in the absence of a microbiome.
as §1
The testing described above was repeated studying the effects of various doses of axelopran (0, 50 nM, 100 nM, 500 nM, and 1000 nM) alone, pembrolizumab alone, or pembrolizumab in combination with axelopran. The results of this testing are shown in FIG. 7, which depicts a summary of melanoma tumor progression (tumor size×#metastasis) in the presence of increasing axelopran concentrations or the checkpoint inhibitor pembrolizumab. For experiments using pembrolizumab, exogenous tumor-infiltrating lymphocytes (TILs) were also injected. The additional controls included the effect of TILs alone and with axelopran (500 nM) and pembrolizumab and TILs alone and with axelopran (500 nM). *=<0.05, **=<0.005, ***=<0.0005.

The values below come from patent publication US20250186423A1, “METHODS OF TREATING CANCER AND OTHER CONDITIONS WITH A MU OPIOID RECEPTOR ANTAGONIST” (priority 2022, published 2025).

`C[N@+]1(CC2CC2)CC[C@]23c4c5ccc(O)c4O[C@H]2C(=O)CC[C@@]3(O)[C@H]1C5` [methylnaltrexone]: the “angiogenesis (HUVEC cell tube formation)” value in data set [1] is reported as “inhibit angiogenesis”. Regarding `C=CCN1CC[C@]23c4c5ccc(O)c4O[C@H]2[C@@H](OCCOCCOCCOCCOCCOCCOCCOC)CC[C@@]3(O)[C@H]1C5` [naloxegol], the “angiogenesis (HUVEC cell tube formation)” value in data set [1] is “inhibit angiogenesis”. Take `C=CCN1CC[C@]23c4c5ccc(O)c4O[C@H]2C(=O)CC[C@@]3(O)[C@H]1C5` [naloxone]: the “opioids-induced angiogenesis and angiogenesis by itself” value in data set [2] is “neither antagonizes opioids-induced angiogenesis nor induces angiogenesis by itself”. As for bevacizumab: an anti-VEGF antibody, the “Breast cancer tumor progression index (tumor size × metastasis), Mean” value in data set [3] was 0.28 fraction of negative control.

For “pembrolizumab: an anti-PD1 antibody, checkpoint inhibitor”, the “Breast cancer tumor progression index (tumor size × metastasis), Mean” value in data set [3] is recorded as 0.54 fraction of negative control. The “Zebra fish larvae mortality” value in the data set with Zebra fish larvae was determined as 63%. Besides, the “Melanoma tumor progression index (tumor size × metastasis), Mean” value in the data set on M-001 melanoma cells is reported as 4.83.
